The record followed here is US10808247B2, “Methods for treating neurological disorders using a synergistic small molecule and nucleic acids therapeutic approach” (Phio Pharmaceuticals Corp., priority 2015, dated 2020).

The subject of one assay is HSP70-2. Nature of the assay: Cytoplasmic chaperone expression by qPCR in SH-5YSY. The assay is classed as cell-based. The settings on record: 24 h treatment. The protocol: (§1) FIG. 5. Effect of SYN1 on cytoplasmic chaperones expression. The expression of the genes listed in the graph was assessed using qPCR in SH-5YSY after 24 h treatment with SYN1.
Another assay concerns HSP27. Described as above. The assay is classed as cell-based. The settings on record: 24 h treatment. The protocol: as §1
Another assay relates to HSP-dependent mRNAs. The assay is described as above. The assay is classed as cell-based. The following applies: 24 h treatment. The protocol: as §1
A further assay concerns SOD-1-G93A ALS mouse. Briefly: SOD-1-G93A ALS mouse: survival, weight, neurologic score. The assay is classed as in vivo. The following applies: for survival (Kaplan-Meier analysis): administration at the time of onset; for body weight lost / inhibition of body weight loss: at 120 days; for inhibition of body weight loss: versus control animals; for lifespan extension at 50% survival: male mice, 25 mg/kg IP daily from day 96. As to the method: FIGS. 6A-6D. Effect of SYN1 and SYN2 in SOD-1-G93A ALS mouse. The animals were received at day 70 and kept until day 96, at which time daily IP treatment was started with 25 mg/kg of the compounds. Weight and standard neurologic scores (N.S.) were assessed on alternate days. A N.S. of 4 triggered the exception (euthanized accordingly to humane practices). […] Data in FIGS. 6A and 6B document a 66% and an 81% lifespan extension for SYN1 and SYN2, respectively, at 50% survival in male mice. […] The average weight within the groups before the treatment was similar (inset to FIG. 6C). However, at 120 days, control animals lost on average 12% of the body weight (FIG. 6C). […] Although progression from N.S. 0 to 1 was delayed only by SYN1 (2 day delay, +30%), progression to higher N.S. was delayed by both agents (FIG. 6D). […] Control animals reached N.S.=2 at 30 days on average; treated animals reached N.S.=2 at day 46 or later on average. *P<0.05; **P<0.01.

The subject of the next assay is NF-κB p65. Nature of the assay: NF-κB p65 nuclear translocation in NSC-34 immortalized motoneurons, immunoblot. The class given is cell-based. The settings on record: NSC-34 cells, 24 h. The protocol: (§2) FIGS. 4A-4F. SYN1 and SYN2 increase the expression and activity of NF-κB target genes, such as MnSOD in neurons. […] A commercially available kit, modified to detect MnSOD activity in primary neurons, was used. Neurons were exposed to 3 mM SYN1 or 300 nM SYN2 for 24 h. […] TNF-α was included as a reference. FIGS. 4B, 4D and 4F show SYN1 and SYN2 increase MnSOD protein expression. Mature primary neurons (FIG. 4B), SH-SY5Y cells (FIG. 4D), and NSC-34 cells (FIG. 4F) were treated for 24 h with the compounds. Thereafter, cells were lysed, and proteins were extracted and subjected to SDS-PAGE. Immunoblots were then performed following the instructions of the antibody manufacturer. ECL was used for detection. […] The effect of TNF exposure is provided for reference. […] Primary cortical neurons at 6 D.I.V. were pretreated for 24 h with compounds and then challenged with 80 μM of H2O2. […] SYN1 at 3 μM inhibited cell death by 100%. […] The protection exceeded 60% and extended up to a concentration of 1 μM. […] NSC-34 cells were treated for 24 h with the compounds. Thereafter, cells were lysed, and cytosolic and nuclear fractions were separated. Subsequently, SDS-PAGE and immunoblots were performed. ECL was used for detection. […] The effect of TNF exposure was provided for reference. […] ANOVA+Bonferroni's.

The subject of assay [1] is MnSOD. Briefly: MnSOD activity in primary neurons (modified commercial kit). The assay is classed as cell-based. The settings on record: 3 mM SYN1 or 300 nM SYN2 for 24 h. As to the method:
as §2

Assay [2] concerns MnSOD. Briefly: MnSOD protein expression by immunoblot in neurons. The class given is cell-based. The settings on record: 24 h; for MnSOD expression by Western blot: NSC-34 cells; for MnSOD protein expression: mature primary neurons, SH-SY5Y cells and NSC-34 cells. As to the method: as §2
For orientation: Immunoblotting shows a protein as a band on a membrane.

A further assay relates to Primary cortical neurons. Briefly: Neurotoxicity induced by H2O2 in primary cortical neurons. The class given is cell-based. The settings on record: 24 h pretreatment, 80 μM H2O2. The protocol: as §2

Bounds are passed on as bounds.

Turning to `O=C(/C=C/Nc1ccccc1Br)c1ccc2c(c1)OCO2` [SYN1], the HSP70-2 gene expression entry in the assay with HSP70-2 is “significantly up-regulated”. In addition, the HSP27 gene expression entry in the assay with HSP27 is “significantly up-regulated”. Further, in the assay with HSP-dependent mRNAs, the “HSP-dependent mRNAs” value is recorded as “significantly increased”. Besides, in the assay on SOD-1-G93A ALS mouse (25 mg/kg IP daily), the “delay of progression from N.S. 0 to 1” value was 2 days; the “delay of progression from N.S. 0 to 1, relative” value is recorded as 30%; the “time spent at N.S.1” value is listed as “increased the time spent at N.S.1”; the “survival (Kaplan-Meier analysis)” value is on record as “significantly extended survival”. In the assay on SOD-1-G93A ALS mouse (25 mg/kg IP daily), the body weight lost came to 3%. Also, in the assay on SOD-1-G93A ALS mouse, the “inhibition of body weight loss” value stood at 75% and the “lifespan extension at 50% survival” value was determined as 66%. Moreover, the p65 nuclear presence result in the assay on NF-κB p65 is given as “increased p65 nuclear presence”. Besides, the MnSOD activity result with MnSOD [1] was “significantly increased”. Also, in the assay with MnSOD [2], the “MnSOD expression by Western blot” value is “increased expression of MnSOD” and the MnSOD protein expression entry is “increased MnSOD expression in all three kinds of neurons”. Moreover, the “inhibition of cell death” value in the assay on Primary cortical neurons (3 μM) worked out at 100%.
Consider `Cc1cccnc1Nc1nc(-c2ccccn2)cs1` [SYN2], for which, in the assay on SOD-1-G93A ALS mouse (25 mg/kg IP daily), the “time spent at N.S.1” value is recorded as “increased the time spent at N.S.1”, the “survival (Kaplan-Meier analysis)” value is listed as “significantly extended survival” and the body weight lost is 4%. For the same compound, in the assay on SOD-1-G93A ALS mouse, the “inhibition of body weight loss” value was determined as 65% and the “lifespan extension at 50% survival” value was determined as 81%. The p65 nuclear presence result in the assay on NF-κB p65 was “increased p65 nuclear presence”. For the same compound, the MnSOD activity result in the assay with MnSOD [1] is reported as “significantly increased”. For the same compound, in the assay on MnSOD [2], the “MnSOD expression by Western blot” value is “increased expression of MnSOD” and the MnSOD protein expression entry was “increased MnSOD expression in all three kinds of neurons”. Moreover, in the assay with Primary cortical neurons, the “concentration of peak effect” value worked out at 300 nM, the “concentration up to which protection extended” value was no more than 1 µM and the protection entry is given as “exceeded 60%”.
